Literature values in patent US20210329918A1, “AQUEOUS COMPOSITIONS OF TOPRAMEZONE” (BASF SE, priority 2018, published 2021).

Conditions: 25° C.

Cc1c(C(=O)c2cnn(C)c2O)ccc(S(C)(=O)=O)c1C1=NOCC1 [topramezone, 4-[3-(4,5-dihydro-1,2-oxazol-3-yl)-2-methyl-4-methylsulfonylbenzoyl]-2-methyl-1H-pyrazol-3-one]
solubility of topramezone in water: about 0.305 g/L
